Assays:
Human Fibroblast Cells = test: Transfection of human fibroblast cells with DOTMA/DOPE/peptide and eGFP plasmid, fluorescent plate reader; format: cell-based; conditions: DOTMA/DOPE 1:1 plus peptide with RRRRRRRRRRRR (SEQ ID NO: 109) at n terminus; EF1Alpha eGFP plasmid; 0.01 mL complex; 42 hours
Outline: (§1)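 Cells at 60-70% confluence got DOTMA/DOPE (1:1) mixed with peptides bearing an N-terminal R12 DNA-binding tag, complexed 10 min with EF1α-eGFP plasmid (5 μg/mL in OptiMEM); 0.01 or 0.02 mL complex per well. After 42 h at 37 °C, GFP read by fluorescence plate reader and % transfected cells by microscopy, relative to lipid without peptide.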

HuVec Cells = test: Transfection of HuVec cells with DOTMA/DOPE/peptide and eGFP plasmid, fluorescent plate reader; format: cell-based; conditions: DOTMA/DOPE 1:1 plus peptide with RRRRRRRRRRRR (SEQ ID NO: 109) at n terminus; EF1Alpha eGFP plasmid; 0.01 mL complex; 42 hours
Outline: as §1

NL-1 iPS Cells = test: Transfection of NL-1 iPS cells with DOTMA/DOPE/peptide and eGFP plasmid, fluorescent plate reader; format: cell-based; conditions: DOTMA/DOPE 1:1 plus peptide with RRRRRRRRRRRR (SEQ ID NO: 109) at n terminus; EF1Alpha eGFP plasmid; 42 hours
HeLa Cells [1] = test: Transfection of HeLa cells with DOTMA/DOPE/peptide and eGFP plasmid, fluorescent plate reader; format: cell-based; conditions: DOTMA/DOPE 1:1 plus peptide with RRRRRRRRRRRR (SEQ ID NO: 109) at n terminus; EF1Alpha eGFP plasmid; 0.01 mL complex; 42 hours
Outline: as §1

HeLa Cells [2] = test: Transfection of HeLa cells with DOTMA/SEQ ID NO: 72/peptide compared with Lipofectamine 2000; format: cell-based; conditions: fusogenic peptide 0.1 mg/mL
Outline: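 HeLa cells at 60–70% confluence received 0.01 mL of complexes of EF1Alpha eGFP plasmid (5 μg/mL in OptiMEM) with DOTMA/DOPE (1:1) plus R12-linked peptide, with fusogenic peptide at 0.1 mg/mL final. GFP read by fluorescence plate reader and microscopy (% cells transfected) after 42 h at 37 °C.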

C2C12 Cells = test: Transfection of C2C12 cells with DOTMA/DOPE/peptide and eGFP plasmid, fluorescent plate reader; format: cell-based, mouse; conditions: DOTMA/DOPE 1:1 plus peptide with RRRRRRRRRRRR (SEQ ID NO: 109) at n terminus; EF1Alpha eGFP plasmid; 0.02 mL complex; 42 hours
Outline: as §1

some examined cell types = test: Transfection expression and % cells transfected over the no peptide control; format: cell-based; conditions: on some examined cell types
Outline: as §1

Jurkat Cells = test: Transfection of Jurkat cells with DOTMA/DOPE/peptide and eGFP plasmid, fluorescent plate reader; format: cell-based; conditions: DOTMA/DOPE 1:1 plus peptide with RRRRRRRRRRRR (SEQ ID NO: 109) at n terminus; EF1Alpha eGFP plasmid; 0.02 mL complex; 42 hours
Outline: as §1

503 (TAGSCLRKFSTMRRRRRRRRRRRR; Peptidic transfection agent) [compound 503]
RF (Relative Fluorescence) of Transfection of Human Fibroblast Cells (Human Fibroblast Cells): 13085 | RF (Relative Fluorescence) of Transfection of HuVec Cells (HuVec Cells): 12123 | RF (Relative Fluorescence) of Transfection of NL-1 iPS Cells (NL-1 iPS Cells): 19014 | RF (Relative Fluorescence) of Transfection of HeLa Cells (HeLa Cells [1]): 25368 | RF (Relative Fluorescence), DOTMA/SEQ ID NO: 72/Peptide, HeLa Cells (HeLa Cells [2]; 0.1 μL of DOTMA/SEQ ID NO: 72/Peptide in well of a 96 well plate): 12827 | RF (Relative Fluorescence), DOTMA/SEQ ID NO: 72/Peptide, HeLa Cells (HeLa Cells [2]; 0.2 μL of DOTMA/SEQ ID NO: 72/Peptide in well of a 96 well plate): 20006 | RF (Relative Fluorescence), DOTMA/SEQ ID NO: 72/Peptide, HeLa Cells (HeLa Cells [2]; 0.3 μL of DOTMA/SEQ ID NO: 72/Peptide in well of a 96 well plate): 17101 | RF (Relative Fluorescence), DOTMA/SEQ ID NO: 72/Peptide, HeLa Cells (HeLa Cells [2]; 0.4 μL of DOTMA/SEQ ID NO: 72/Peptide in well of a 96 well plate): 16206 | RF (Relative Fluorescence) of Transfection of C2C12 Cells (C2C12 Cells): 3973 | transfection expression and the % cells transfected over the no peptide control (some examined cell types): increased | RF (Relative Fluorescence) of Transfection of Jurkat Cells (Jurkat Cells): 9411

— US11085056B2, “Transfection complexes and methods of using the same” (MOLECULAR TRANSFER, INC., priority 2015, dated 2021)
